Measured values: the NIST ThermoML archive (doi:10.1021/acs.jced.9b00283)

Assay: xn = mol fraction of the nth substance listed
Conditions: 100 kPa, Liquid, Pycnometric method

OCCCCO [1,4-butanediol] + CCn1cc[n+](C)c1.F[B-](F)(F)F
Conditions	molar volume [m3/mol]
298.15 K, x1 = 0.19	0.0001368
298.15 K, x1 = 0.978	9.18e-05
303.15 K, x1 = 0.24	0.0001346
303.15 K, x1 = 0.962	9.26e-05
308.15 K, x1 = 0.251	0.0001345
308.15 K, x1 = 0.957	9.33e-05
313.15 K, x1 = 0.326	0.0001286
313.15 K, x1 = 0.944	9.04e-05

OCCCCO [1,4-butanediol] + CCn1cc[n+](C)c1.O=S(=O)([N-]S(=O)(=O)C(F)(F)F)C(F)(F)F
Conditions	molar volume [m3/mol]
298.15 K, x1 = 0.177	0.0002253
298.15 K, x1 = 0.971	9.23e-05
303.15 K, x1 = 0.189	0.0002241
303.15 K, x1 = 0.968	9.31e-05
308.15 K, x1 = 0.217	0.00022
308.15 K, x1 = 0.962	9.36e-05
313.15 K, x1 = 0.233	0.0002181
313.15 K, x1 = 0.958	9.29e-05

OCCCCCO [1,5-pentanediol] + CCn1cc[n+](C)c1.F[B-](F)(F)F
Conditions	molar volume [m3/mol]
303.15 K, x1 = 0.129	0.0001423
303.15 K, x1 = 0.982	0.0001069
308.15 K, x1 = 0.151	0.0001416
308.15 K, x1 = 0.977	0.0001075
313.15 K, x1 = 0.183	0.0001412
313.15 K, x1 = 0.97	0.0001062
318.15 K, x1 = 0.231	0.0001381
318.15 K, x1 = 0.969	0.0001064

OCCCCCO [1,5-pentanediol] + CCn1cc[n+](C)c1.O=S(=O)([N-]S(=O)(=O)C(F)(F)F)C(F)(F)F
Conditions	molar volume [m3/mol]
298.15 K, x1 = 0.142	0.0002297
298.15 K, x1 = 0.995	0.0001075
303.15 K, x1 = 0.16	0.0002253
303.15 K, x1 = 0.992	0.0001086
308.15 K, x1 = 0.175	0.0002251
308.15 K, x1 = 0.987	0.0001088
313.15 K, x1 = 0.193	0.0002239
313.15 K, x1 = 0.982	0.0001095

OCCCO [propan-1,3-diol] + CCn1cc[n+](C)c1.O=S(=O)([N-]S(=O)(=O)C(F)(F)F)C(F)(F)F
Conditions	molar volume [m3/mol]
298.15 K, x1 = 0.208	0.0002153
298.15 K, x1 = 0.977	7.48e-05
303.15 K, x1 = 0.226	0.0002124
303.15 K, x1 = 0.974	7.55e-05
308.15 K, x1 = 0.234	0.0002114
308.15 K, x1 = 0.971	7.61e-05
313.15 K, x1 = 0.259	0.0002063
313.15 K, x1 = 0.971	7.6e-05
